From patent publication US10842892B2, “Methods and apparatus for synthesizing imaging agents, and intermediates thereof” (Lantheus Medical Imaging, Inc., priority 2010, dated 2020)
Values joined by “and” are separate entries in the source; they are usually repeats but may differ in a detail not shown here. Equal entries are not always repeated.

Tests used:
normal subjects = test: human safety, dosimetry, biodistribution and rest-stress myocardial imaging in normal subjects; type: in vivo
Experimental: 25 normal subjects were enrolled in 2 studies: 13 received 222 MBq I.V. At rest (R) only and 12 more subjects received 94 MBq at R and, on a second day, 124 MBq at peak adenosine stress (Adeno, n=6) or at peak treadmill exercise (Ex, n=6). Physical exam, laboratory, vital signs, ECG, and EEG were monitored pre- and post-injection. Myocardial (Myo), liver, blood pool and lung Standardized Uptake Values (SUV) were determined from sequential PET images over time. Mean dose for various organs and mean effective dose (ED in mSv/MBq) were estimated.

[1] = syringe adsorption of imaging agent 1; type: physicochemical; conditions: three hours, ambient temperature
Experimental: The two sets of filled syringes were maintained at ambient temperature and humidity for a period of three hours, at which time the contents were injected into a clean 5 cc glass vial; a consistent volume of imaging agent 1 (0.1 mL) remained in the hub of each syringe. The total radioactivity content of both the vial and syringe were measured, decay corrected and the percent retention calculated. The difference in percent retained activity is statistically significant at the 95% confidence level (i.e. Prob>|t| 0.0005).

[2] = system: blood brain barrier (BBB); test: brain uptake with and without blood brain barrier disruption; type: in vivo, rat; conditions: rat
Experimental: Male Sprague-Dawley rats were anesthetized with sodium pentobarbital and the left external carotid artery was cannulated close to the internal and external carotid bifurcation. Using saline as control and 25% D-mannitol as hypertonic solution, each were perfused retrogradely in six animals (0.3 mL/kg/sec) for 30 seconds. Two minutes later, ˜1 mCi imaging agent 1 was injected via tail vein and the brain was imaged with a microPET camera for 30 minutes. […] Following completion of imaging, the brain was harvested, photographed and dissected into left and right hemispheres and cerebellum. The tissue content of imaging agent 1 radioactivity was measured by gamma counter and Evans blue levels were determined by fluorescence method for calculation of the % injected dose/gram tissue and μg Evan blue/gram tissue, respectively.

control and MI rabbits = test: cardiovascular evaluation (ECG, arterial pressure) after injection in control and MI rabbits; type: in vivo, rabbit
Experimental: PET images and cardiovascular parameters were evaluated in both normal and MI rabbits. Prior to imaging, the rabbit was anesthetized with ketamine (25 mg/Kg, im) and xylazine (5 mg/Kg, im) and the marginal ear vein was catheterized for imaging agent 1 injection. The right femoral artery was isolated and canulated with a Millar catheter (SPC340, Millar Instruments, Houston, Tex.) for arterial pressure measurement. Then the animal was positioned in a microPET camera (Focus220, CTI Molecular Imaging, Inc. Knoxville, Tenn.) for cardiac imaging. The Millar catheter was connected to a computer driven data acquisition system (MP35, BIOPAC Systems, Goleta, Calif.) for recording of mean arterial pressure (MAP), and systolic and diastolic arterial pressure (SAP and DAP). In addition, electrocardiogram (ECG) was also recorded with 3 non-invasive limb leads in lead II configuration using the BIOPAC system. Heart rate (HR) and QT interval were derived from ECG recording. After a stabilization period, cardiovascular parameters: MAP, SBP, DBP and ECG, were recorded 5 minutes before imaging agent 1 intravenous injection (˜1.5 mCi) and the recording continued for additional 20 minutes post-injection. The rabbit was imaged for 30 minutes.
Data are expressed as mean±SD and unpaired student t-test (assuming unequal variances) was used for comparison of baseline values between control and MI rabbits. p<0.05 was considered statistically significant. At each timepoint (before and 1-, 5-, 10- and 20-minute after imaging agent 1 injection), MAP, SAP and DAP measured intraarterially averaged every 10-second, and HR and QTc interval derived from ECG recording averaged every 12 heart beats. The QT interval was manually defined by one investigator and QTc was generated from QT corrected by RR interval using Fridericia method (QTc=QT/RR1/3).9

Q: Which adverse events (normal subjects; 25 normal subjects) does the source give for `CC(C)(C)n1ncc(OCc2ccc(COCC[18F])cc2)c(Cl)c1=O` [imaging agent 1, 2-t-butyl-4-chloro-5-[4-(2-(^18F)fluoroethoxymethyl)-benzyloxy]-2H-pyridazin-3-1] here?
A: no adverse events related to the tracer

Q: What about the “Adeno Myo SUV” value (normal subjects; 10 mins) of the same molecule?
A: 10.5 ± 1.5

Q: What about the “Adeno Myo/liver” value (normal subjects; 10 mins) of the same molecule?
A: 1.9 ± 0.6

Q: What about the “Exercise Myo SUV” value (normal subjects; 10 mins) of the same molecule?
A: 6.2 ± 2.1

Q: What about the “Exercise Myo/liver” value (normal subjects; 10 mins) of the same molecule?
A: 28.0 ± 33.6

Q: And the “Rest Myo SUV” value (normal subjects; 10 mins)?
A: 3.9 ± 0.9

Q: What about the “Rest Myo/liver” value (normal subjects; 10 mins) of the same molecule?
A: 1.0 ± 0.3

Q: What about the “Adeno Myo SUV” value (normal subjects; 30 mins) of the same molecule?
A: 10.8 ± 2.1

Q: And the “Adeno Myo/liver” value (normal subjects; 30 mins)?
A: 2.0 ± 0.5

Q: What about the “Exercise Myo SUV” value (normal subjects; 30 mins) of the same molecule?
A: 5.5 ± 1.0

Q: And the “Exercise Myo/liver” value (normal subjects; 30 mins)?
A: 5.6 ± 1.0

Q: And the “Rest Myo SUV” value (normal subjects; 30 mins)?
A: 4.2 ± 1.1

Q: What about the “Rest Myo/liver” value (normal subjects; 30 mins) of the same molecule?
A: 0.9 ± 0.2

Q: And the “Adeno Myo SUV” value (normal subjects; 60 mins)?
A: 10.3 ± 2.1

Q: What about the “Adeno Myo/liver” value (normal subjects; 60 mins) of the same molecule?
A: 2.2 ± 0.5

Q: What about the “Exercise Myo SUV” value (normal subjects; 60 mins) of the same molecule?
A: 5.1 ± 0.9

Q: And the “Exercise Myo/liver” value (normal subjects; 60 mins)?
A: 5.6 ± 1.3

Q: What about the “Rest Myo SUV” value (normal subjects; 60 mins) of the same molecule?
A: 4.5 ± 1.2

Q: What about the “Rest Myo/liver” value (normal subjects; 60 mins) of the same molecule?
A: 1.1 ± 0.2

Q: What about the “Adeno Myo SUV” value (normal subjects; 90 mins) of the same molecule?
A: 9.6 ± 2.1

Q: What about the “Adeno Myo/liver” value (normal subjects; 90 mins) of the same molecule?
A: 2.6 ± 0.5

Q: And the “Exercise Myo SUV” value (normal subjects; 90 mins)?
A: 4.9 ± 0.9

Q: What about the “Exercise Myo/liver” value (normal subjects; 90 mins) of the same molecule?
A: 5.8 ± 1.5

Q: What about the “Rest Myo SUV” value (normal subjects; 90 mins) of the same molecule?
A: 4.3 ± 1.3

Q: What about the “Rest Myo/liver” value (normal subjects; 90 mins) of the same molecule?
A: 1.4 ± 0.2

Q: And the “Adeno Myo SUV” value (normal subjects; 149 mins)?
A: 8.4 ± 2.1

Q: What about the “Adeno Myo/liver” value (normal subjects; 149 mins) of the same molecule?
A: 3.8 ± 1.0

Q: What about the “Exercise Myo SUV” value (normal subjects; 149 mins) of the same molecule?
A: 4.5 ± 0.8

Q: And the “Exercise Myo/liver” value (normal subjects; 149 mins)?
A: 5.5 ± 1.5

Q: And the “Rest Myo SUV” value (normal subjects; 149 mins)?
A: 4.1 ± 1.4

Q: What about the “Rest Myo/liver” value (normal subjects; 149 mins) of the same molecule?
A: 2.1 ± 0.3

Q: What about the “mean effective dose (ED)” value (normal subjects; at rest (R)) of the same molecule?
A: 0.019 mSv/MBq

Q: What about the “mean effective dose (ED)” value (normal subjects; with adenosine stress (Adeno)) of the same molecule?
A: 0.019 mSv/MBq

Q: What about the “mean effective dose (ED)” value (normal subjects; with exercise (Ex)) of the same molecule?
A: 0.015 mSv/MBq

Q: And the “Retained Activity in syringe” value ([1]; B&D (Becton & Dickinson) three-component syringe)?
A: 35.2% and 38.9% and 32.4%

Q: What about the “Retained Activity in syringe” value ([1]; HSW (Henke Sass Wolf) two-component syringe) of the same molecule?
A: 11.3% and 7.0% and 5.1%

Q: What about the BBB permeability [2] of the same molecule?
A: high BBB permeability

Q: And the “QTc, change from baseline after injection” value (shortened to “QTc, change from baseline”) (control and MI rabbits; Control rabbits (n = 3), 1 min)?
A: 2 ± 15 ms

Q: What about the “QTc, change from baseline” value (control and MI rabbits; Control rabbits (n = 3), 5 min) of the same molecule?
A: -1 ± 11 ms

Q: And the “QTc, change from baseline” value (control and MI rabbits; Control rabbits (n = 3), 10 min)?
A: 6 ± 20 ms

Q: What about the “QTc, change from baseline” value (control and MI rabbits; Control rabbits (n = 3), 20 min) of the same molecule?
A: 9 ± 15 ms

Q: And the “Diastolic AP, change from baseline after injection” value (from here on “Diastolic AP, change from baseline”) (control and MI rabbits; Control rabbits, 1 min)?
A: 0 ± 1 mmHg

Q: What about the “Heart rate, change from baseline after injection” value (from here on “Heart rate, change from baseline”) (control and MI rabbits; Control rabbits, 1 min) of the same molecule?
A: −4 ± 2 beat/min

Q: What about the “Mean AP, change from baseline after injection” value (“Mean AP, change from baseline” below) (control and MI rabbits; Control rabbits, 1 min) of the same molecule?
A: 0 ± 0 mmHg

Q: And the “Systolic AP, change from baseline after injection” value (“Systolic AP, change from baseline” below) (control and MI rabbits; Control rabbits, 1 min)?
A: 0 ± 1 mmHg

Q: And the “Diastolic AP, change from baseline” value (control and MI rabbits; Control rabbits, 5 min)?
A: −1 ± 2 mmHg

Q: What about the “Heart rate, change from baseline” value (control and MI rabbits; Control rabbits, 5 min) of the same molecule?
A: −2 ± 1 beat/min

Q: What about the “Mean AP, change from baseline” value (control and MI rabbits; Control rabbits, 5 min) of the same molecule?
A: −2 ± 0 mmHg

Q: What about the “Systolic AP, change from baseline” value (control and MI rabbits; Control rabbits, 5 min) of the same molecule?
A: −2 ± 1 mmHg

Q: What about the “Diastolic AP, change from baseline” value (control and MI rabbits; Control rabbits, 10 min) of the same molecule?
A: 0 ± 5 mmHg

Q: What about the “Heart rate, change from baseline” value (control and MI rabbits; Control rabbits, 10 min) of the same molecule?
A: −2 ± 4 beat/min

Q: And the “Mean AP, change from baseline” value (control and MI rabbits; Control rabbits, 10 min)?
A: −2 ± 3 mmHg

Q: What about the “Systolic AP, change from baseline” value (control and MI rabbits; Control rabbits, 10 min) of the same molecule?
A: −1 ± 6 mmHg

Q: And the “Diastolic AP, change from baseline” value (control and MI rabbits; Control rabbits, 20 min)?
A: 0 ± 5 mmHg

Q: And the “Heart rate, change from baseline” value (control and MI rabbits; Control rabbits, 20 min)?
A: −4 ± 4 beat/min

Q: What about the “Mean AP, change from baseline” value (control and MI rabbits; Control rabbits, 20 min) of the same molecule?
A: −1 ± 6 mmHg

Q: What about the “Systolic AP, change from baseline” value (control and MI rabbits; Control rabbits, 20 min) of the same molecule?
A: 0 ± 5 mmHg

Q: And the “QTc, change from baseline” value (control and MI rabbits; MI rabbits (n = 4), 1 min)?
A: 8 ± 5 ms

Q: What about the “QTc, change from baseline” value (control and MI rabbits; MI rabbits (n = 4), 5 min) of the same molecule?
A: 4 ± 6 ms

Q: What about the “QTc, change from baseline” value (control and MI rabbits; MI rabbits (n = 4), 10 min) of the same molecule?
A: 4 ± 8 ms

Q: What about the “QTc, change from baseline” value (control and MI rabbits; MI rabbits (n = 4), 20 min) of the same molecule?
A: 3 ± 12 ms

Q: And the “Diastolic AP, change from baseline” value (control and MI rabbits; MI rabbits, 1 min)?
A: 1 ± 1 mmHg

Q: What about the “Heart rate, change from baseline” value (control and MI rabbits; MI rabbits, 1 min) of the same molecule?
A: 6 ± 5 beat/min

Q: And the “Mean AP, change from baseline” value (control and MI rabbits; MI rabbits, 1 min)?
A: 2 ± 1 mmHg

Q: And the “Systolic AP, change from baseline” value (control and MI rabbits; MI rabbits, 1 min)?
A: 1 ± 2 mmHg

Q: What about the “Diastolic AP, change from baseline” value (control and MI rabbits; MI rabbits, 5 min) of the same molecule?
A: 2 ± 2 mmHg

Q: And the “Heart rate, change from baseline” value (control and MI rabbits; MI rabbits, 5 min)?
A: 3 ± 8 beat/min

Q: What about the “Mean AP, change from baseline” value (control and MI rabbits; MI rabbits, 5 min) of the same molecule?
A: 2 ± 2 mmHg

Q: And the “Systolic AP, change from baseline” value (control and MI rabbits; MI rabbits, 5 min)?
A: 2 ± 2 mmHg

Q: And the “Diastolic AP, change from baseline” value (control and MI rabbits; MI rabbits, 10 min)?
A: 1 ± 1 mmHg

Q: What about the “Heart rate, change from baseline” value (control and MI rabbits; MI rabbits, 10 min) of the same molecule?
A: 1 ± 6 beat/min

Q: What about the “Mean AP, change from baseline” value (control and MI rabbits; MI rabbits, 10 min) of the same molecule?
A: −1 ± 2 mmHg

Q: And the “Systolic AP, change from baseline” value (control and MI rabbits; MI rabbits, 10 min)?
A: 0 ± 1 mmHg

Q: And the “Diastolic AP, change from baseline” value (control and MI rabbits; MI rabbits, 20 min)?
A: 2 ± 2 mmHg

Q: And the “Heart rate, change from baseline” value (control and MI rabbits; MI rabbits, 20 min)?
A: −7 ± 10 beat/min

Q: And the “Mean AP, change from baseline” value (control and MI rabbits; MI rabbits, 20 min)?
A: 2 ± 3 mmHg

Q: And the “Systolic AP, change from baseline” value (control and MI rabbits; MI rabbits, 20 min)?
A: 1 ± 7 mmHg

Q: What about the “effect on MAP, SAP and DAP” value (control and MI rabbits; MI rabbits, during and after administration) of the same molecule?
A: no alterations of these parameters were observed

Q: And the “effect on ECG waveform, cardiac rhythm, HR and QTc interval” value (control and MI rabbits; control or MI rabbits, 1-, 5-, 10- and 20-minute post iv injection)?
A: did not alter

Q: And the “effect on MAP, SAP and DAP” value (control and MI rabbits; control rabbits)?
A: did not induce changes
